Drawing on patent US11345670B2, “Heterocyclic compounds for cancer imaging and treatment and methods for their use” (The University of British Columbia, priority 2015, dated 2022), this text covers IC50 for three compounds.

The assay has as its system androgen receptor (AR). Put plainly: PSA (6.1 kb)-luciferase reporter assay in LNCaP cells induced with R1881. It is filed as cell-based. Conditions: Homo sapiens; LNCaP cells transiently transfected with PSA (6.1 kb)-luciferase; 1 h pre-treatment with compound, then R1881 (1 nM) for 24 h; value with standard error. Here is the method: LNCaP cells were transiently transfected with PSA (6.1 kb)-luciferase for 24 h prior to pre-treatment with compounds of the invention (e.g., compounds 1a, 9, 13) ranging in concentration from 62.5 ng/ml to 1.5 ug/ml for 1 hour before the addition of vehicle, or synthetic androgen, R1881 (1 nM) to induce luciferase production. After 24 h of incubation with R1881, the cells were harvested, and relative luciferase activities were determined. To determine the IC50, treatments were normalized to the predicted maximal activity induction (in the absence of test compounds, vehicle only).
Regarding `CC(C)(c1ccc(OC[C@H](O)CCl)cc1)c1ccc(OC[C@H](O)Cn2nnc(CO)c2I)cc1` [Compound 1a, (S)-1-chloro-3-(4-(2-(4-((R)-2-hydroxy-3-(4-(hydroxymethyl)-5-iodo-1H-1,2,3-triazol-1-yl)propoxy)phenyl)propan-2-yl)phenoxy)propan-2-ol], the IC50 (as a rule, the concentration needed to halve the response being measured) is 3.23 µM. Under `CC(C)(c1ccc(OCC(O)CCl)cc1)c1ccc(OCC(O)Cn2ccnc2)cc1` (stereo not drawn) [Compound 9, 1-chloro-3-(4-(2-(4-(2-hydroxy-3-(1H-imidazol-1-yl)propoxy)phenyl)propan-2-yl)phenoxy)propan-2-ol] stands 8.45 µM. Take `CC(C)(c1ccc(OCC(O)CCl)cc1)c1ccc(OCC(O)CN2CCOCC2)cc1` (stereo not drawn) [Compound 13, 1-chloro-3-(4-(2-(4-(2-hydroxy-3-morpholinopropoxy)phenyl)propan-2-yl)phenoxy)propan-2-ol]: the IC50 stood at 12.8 µM.
